The results in this text go back to patent US20210379100A1, “USE OF FUNCTIONALIZED CALCIUM CARBONATE AS ACTIVE INGREDIENT” (OMYA INTERNATIONAL AG, priority 2018, published 2021).

Molecules are shown by their SMILES.

The nature of the data set: Particle size distribution (Malvern Mastersizer 3000 laser diffraction / Sedigraph sedimentation). In kind it is physicochemical.

Description: The “particle size” of all particulate materials disclosed herein, with the exception of ground calcium carbonate and precipitated calcium carbonate, is described as volume-based particle size distribution dx(vol). Therein, the value dx(vol) represents the diameter relative to which x % by volume of the particles have diameters less than dx(vol). This means that, for example, the d20(vol) value is the particle size at which 20 vol % of all particles are smaller than that particle size. The d50(vol) value is thus the volume median particle size, i.e. 50 vol % of all particles are smaller than that particle size and the d98(vol) value, referred to as volume-based top cut, is the particle size at which 98 vol % of all particles are smaller than that particle size. […]
All particle sizes described herein, with the exception of the particle sizes of the ground calcium carbonate that was used for the production of the functionalized calcium carbonate and that of precipitated calcium carbonate, refer to the volume-based particle size distribution dx(vol). The volume-based median particle size d50(vol) and top cut d98(vol) are evaluated using a Malvern Mastersizer 3000 Laser Diffraction System (Malvern Instruments Plc., Great Britain). The raw data obtained by the measurement is analyzed using the Fraunhofer theory. […]

`O.O.O.O.O=C([O-])CC(O)(CC(=O)[O-])C(=O)[O-].O=C([O-])CC(O)(CC(=O)[O-])C(=O)[O-].[Ca+2].[Ca+2].[Ca+2]` [Calcium citrate tetrahydrate] displayed a d50 (median particle size) of 6.83 μm. The compound also showed a d98 (top cut particle size) of 80 μm.
